A short description of test [1]: DPPH radical scavenging (antioxidant) assay. Conditions: for IC50: DPPH 300 μM, half an hour at 37°C. As for the experimental part: The free radical scavenging capacity of the compounds was measured by 1,1-diphenyl-2-picrylhydrazyl. Test compounds were allowed to react with stable free radical, 1,1-diphenyl-2-picrylhydrazyl radical (DPPH) for half an hour at 37°C. The concentration of DPPH was kept as 300 μM. The test samples were dissolved in DMSO while the DPPH solution was prepared in ethanol. After incubation, decrease in absorption was measured at 515 nm using microplate reader. Percent radical scavenging activity of samples was determined in comparison with a DMSO treated as control. Propyl gallate and 3-tert-Butyl-4-hydroxyanisole were used as standards.
In general terms: Loss of DPPH colour is used to gauge radical scavenging.

The test system of test [2] is Shigella flexneri. The test can be described thus: Antibacterial activity, serial tube dilution MIC. In kind it is cell-based. Conditions: for MIC: Shigella flexneri, average of three readings, 24 h at 37°C, read-out: MIC S. flexneri; for Antibacterial activity against S. flexneri compared to standard ciprofloxacin: in words. How it is done: (§1) The antibacterial activity data is represented in Table 2. […] Ciprofloxacin was used as standard drug. The compounds were found active against bacterial strains (2 Gram positive bacteria, namely, Staphylococcus aureus, Bacillus subtilis, and 2 Gram negative bacteria namely Escherichia coli, Shigella flexneri) in variable concentration. The antibacterial activities of 1,3,4-oxadiazole derivatives were evaluated in vitro by serial tube dilution method. The compounds and standard drug ciprofloxacin were dissolved in N,N-dimethylformamide (DMF) to give a concentration of 5 μg/mL (stock solution). Necessary apparatus and test tubes set of capacity 5 mL was washed cleaned and completely dried. For the bacterial culture double strength nutrient broth was used. The culture media was made by dissolving 15 g of nutrient broth in 1 L of distilled water. Approximately, 1 mL of culture media was prepared and transferred to each test tube by micropipette and capped with non-adsorbent cotton plugs. The test tubes containing 1 mL culture media was sterilized in an autoclave at 121°C for 20 min at 15 psi pressure. Sub-culturing of bacteria was done by transferring a loopful of particular bacterial strain from standard bacterial agar to 10 mL sterilized nutrient broth aseptically in a laminar air flow cabinet. It was then incubated for a period of 24 h at 37°C in a B. O. D. incubator. Bacterial strain suspension was prepared, after 24 h incubation, by aseptically inoculating 0.2 mL of revived bacterial colony into 100 mL of 0.9% m/v saline. A series of 5 assay tubes for a single derivative against each bacterial strain was employed. A stock solution of each test derivative at concentration 5 μg/mL (containing 1 mL nutrient broth) was serially diluted to achieve concentrations of 2.5, 1.25, 0.625, 0.313, and 0.156 μg/mL. Then, 0.1 mL of normal saline suspension of revived bacteria was added to each test tube. The inoculated tubes were incubated at 37°C for 24 h. The MIC (minimum inhibitory concentration) values were determined by subsequently checking for the absence of visual turbidity.

Test [3] concerns Staphylococcus aureus. The test can be described thus: Antibacterial activity, serial tube dilution MIC. It counts as cell-based. Conditions: for MIC: Staphylococcus aureus, read-out: MIC S. aureus; for Antibacterial activity against S. aureus compared to standard ciprofloxacin: in words. How it is done: as §1
Test [4] concerns Bacillus subtilis. The test is described as follows: Antibacterial activity, serial tube dilution MIC. In kind it is cell-based. The note with it: for MIC: Bacillus subtilis, read-out: MIC B. subtilus. How it is done: as §1
Test [5] has as its system Escherichia coli. The test is described as follows: Antibacterial activity, serial tube dilution MIC. In kind it is cell-based. The note with it: for MIC: Escherichia coli, 24 h, average of three readings, 24 h at 37°C, read-out: MIC E. coli. How it is done: as §1
For test [6], the target named is Jack bean urease (Canavalia ensiformis, UniProt P07374). The test is described as follows: biochemical. It counts as biochemical.
Chain of Jack bean urease (P07374 whole entry, looked up): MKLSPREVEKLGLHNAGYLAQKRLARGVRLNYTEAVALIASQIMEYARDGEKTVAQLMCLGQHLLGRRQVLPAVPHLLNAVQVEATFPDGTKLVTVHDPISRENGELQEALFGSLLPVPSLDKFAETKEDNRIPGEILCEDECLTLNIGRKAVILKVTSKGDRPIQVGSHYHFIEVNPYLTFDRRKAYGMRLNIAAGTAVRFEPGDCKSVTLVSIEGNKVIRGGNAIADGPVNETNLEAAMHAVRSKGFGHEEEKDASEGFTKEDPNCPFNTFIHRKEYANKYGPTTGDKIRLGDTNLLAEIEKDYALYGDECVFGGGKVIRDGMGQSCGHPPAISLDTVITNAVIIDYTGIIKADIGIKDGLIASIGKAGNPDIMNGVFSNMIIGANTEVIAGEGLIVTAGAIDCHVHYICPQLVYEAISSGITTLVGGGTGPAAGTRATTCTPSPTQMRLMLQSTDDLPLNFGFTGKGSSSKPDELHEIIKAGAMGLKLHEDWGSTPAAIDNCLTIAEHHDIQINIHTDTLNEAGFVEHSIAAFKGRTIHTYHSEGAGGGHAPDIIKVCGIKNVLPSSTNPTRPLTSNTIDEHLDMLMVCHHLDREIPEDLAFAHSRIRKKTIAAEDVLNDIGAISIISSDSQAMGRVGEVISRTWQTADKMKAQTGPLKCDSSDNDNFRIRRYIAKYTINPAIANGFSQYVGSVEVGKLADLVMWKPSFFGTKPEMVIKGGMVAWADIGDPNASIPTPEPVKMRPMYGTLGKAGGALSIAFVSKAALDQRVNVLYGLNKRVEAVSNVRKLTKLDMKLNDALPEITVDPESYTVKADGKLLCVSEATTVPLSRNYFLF
[7] abbreviates: average of three readings, 24 h at 37°C.

In brackets after ≈: the same amount, converted by molar mass. Entries after “also recorded” stand apart in the source; their conditions may differ. Where two headings read alike, the source gives them in different places.

The values that follow come from PMC3425833, “Synthesis, Urease Inhibition, Antioxidant, Antibacterial, and Molecular Docking Studies of 1,3,4-Oxadiazole Derivatives” (ISRN Pharmacology, 2012).

Usually IC50 stands for the midpoint of a concentration-inhibition curve. High values mean a need for much substance, low ones inhibition by little substance. What is called MIC is the lowest concentration that inhibits growth of the organism. The term inhibition denotes the drop in the measured response relative to a control, in per cent.

As to `COc1cccc(Cc2n[nH]c(=S)o2)c1` [Compound 4n, 5-(3-Methoxybenzyl)-1,3,4-oxadiazole-2(3H)-thione], the IC50 in test [1] was 60.3 ± 4.3 µM; in test [6], 12.2 ± 0.05 µM. The MIC worked out at 0.156 µg/mL (≈ 0.702 µM) in test [2], 0.156 µg/mL (≈ 0.702 µM) in test [3] (24 h), 0.156 µg/mL (≈ 0.702 µM) in test [4] (24 h) and 0.625 µg/mL (≈ 2.81 µM) in test [5]. In addition, the “Antibacterial activity against S. flexneri compared to standard ciprofloxacin” value in test [2] was “two-fold activities”. Further, the “Antibacterial activity against S. aureus compared to standard ciprofloxacin” value in test [3] was “equipotent activity”. In test [4], the “Antibacterial activity against B. subtilus relative to ciprofloxacin” value turned out to be 4 fold.

In the case of `COc1cccc(CCc2n[nH]c(=S)o2)c1` [Compound 4o, 5-(3-Methoxyphenethyl)-1,3,4-oxadiazole-2(3H)-thione], the results for the IC50 in test [1] and in test [6] were 43.6 ± 3.1 µM and 15.1 ± 0.8 µM, respectively. Besides, the MIC turned out to be 0.156 µg/mL (≈ 0.66 µM) in test [2], 2.5 µg/mL (≈ 10.6 µM) in test [3] (setting [7]), 0.625 µg/mL (≈ 2.64 µM) in test [4] (setting [7]) and 0.313 µg/mL (≈ 1.32 µM) in test [5]. Moreover, the “Antibacterial activity against S. flexneri compared to standard ciprofloxacin” value in test [2] was “two-fold activities”.

In test [1], `Fc1cc(Cl)ccc1-c1n[nH]c(=S)o1` [Compound 4r, 5-(4-Chloro-2-fluorophenyl)-1,3,4-oxadiazole-2(3H)-thione] yielded an IC50 of 10.8 ± 0.2 µM. Also, the “DPPH radical scavenging activity compared to standard propyl gallate” value in test [1] (in words) was “four-fold”. Moreover, the values for the MIC in test [2], in test [3] (setting [7]) and in test [4] (24 h) were 0.313 µg/mL (≈ 1.36 µM), 0.156 µg/mL (≈ 0.676 µM) and 0.313 µg/mL (≈ 1.36 µM), respectively. The “Antibacterial activity against S. flexneri compared to standard ciprofloxacin” value in test [2] was “equipotent activity”. The “Antibacterial activity against S. aureus compared to standard ciprofloxacin” value in test [3] is “equipotent activity”. For the same compound, the “Antibacterial activity against E. coli compared to standard ciprofloxacin” value in test [5] (in words) is listed as “equipotent; also recorded: considerably less active”. For the same compound, in test [6] (qualitative statement), the “Urease inhibitory activity in words” value was “weak inhibitory activities”. Also, the inhibition at 100 µM in test [6] (read-out: % inhibition of Jack bean urease) worked out at 39%.
